From US20110015119A1, “NOVEL SEMI-SYNTHETIC GLYCOPEPTIDES AS ANTIBACTERIAL AGENTS” (LEAD THERAPEUTICS, INC., priority 2009, published 2011)
≈ marks a conversion by molar mass, not a printed value.

Legend:
Type in all cases: cell-based
[1] = tested on: Staphylococcus aureus 100 (ATCC 29213); assay: MIC by broth microdilution, SA 100; conditions: Staphylococcus aureus, ATCC29213, read-out: MIC SA 100
In short: (§1)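 Clinical isolates, glycopeptide-sensitive or -resistant, were tested in Mueller-Hinton broth. MICs came from the CLSI-recommended serial broth microdilution procedure.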

[2] = tested on: Staphylococcus aureus 757 (MRSA); assay: MIC by broth microdilution, SA 757; conditions: Staphylococcus aureus, MRSA, read-out: MIC SA 757
In short: as §1

[3] = tested on: Staphylococcus aureus 2012 (VISA); assay: MIC by broth microdilution, SA 2012; conditions: Staphylococcus aureus, VISA, read-out: MIC SA 2012, Staphylococcus aureus 2012 (VISA); class symbols
In short: as §1

Enterococcus faecium 800 = assay: MIC by broth microdilution, EFcm 800; conditions: Enterococcus faecium, 800, read-out: MIC E FCM 800
In short: as §1

[4] = tested on: Streptococcus pyogenes 712; assay: MIC by broth microdilution, SPY 712; conditions: Streptococcus pyogenes, 712, read-out: MIC S PYO 712
In short: as §1

[5] = tested on: Enterococcus faecalis 848 (VRE, Van A); assay: MIC by broth microdilution, EFc 848; conditions: Enterococcus faecalis, VRE, read-out: MIC E FC 848, Enterococcus faecalis 848 (VRE, Van A); class symbols
In short: as §1

[6] = tested on: Staphylococcus epidermidis 831 (MRSE); assay: MIC by broth microdilution, SE 831; conditions: Staphylococcus epidermidis, MRSE, read-out: MIC SE 831
In short: as §1

[7] = tested on: Staphylococcus epidermidis 835; assay: MIC by broth microdilution, SE 835; conditions: Staphylococcus epidermidis, 835, read-out: MIC SE 835
In short: as §1

[8] = tested on: Enterococcus faecalis 101 (ATCC 29212); assay: MIC by broth microdilution, EFc 101; conditions: Enterococcus faecalis, ATCC29212, read-out: MIC E FC 101, Enterococcus faecalis 101 (ATCC 29212); class symbols
In short: as §1

[9] = tested on: Streptococcus pneumoniae 1195 (ATCC 49619); assay: MIC by broth microdilution, SPNE 1195; conditions: Streptococcus pneumoniae, ATCC49619, read-out: MIC S PNE 1195
In short: as §1

[10] = tested on: Enterococcus faecium 752 (VRE, Van A); assay: MIC by broth microdilution, EFcm 752; conditions: Enterococcus faecium, VRE, read-out: MIC E FCM 752, Enterococcus faecium 752 (VRE, Van A); class symbols
In short: as §1

Q: Which results are given for CCCCCCCC(C)NC(=O)Oc1cc(O)c2c(c1)[C@@H](C(=O)NC1C3CC4CC(C3)CC1C4)NC(=O)[C@H]1NC(=O)[C@H](NC(=O)[C@@H]3NC(=O)[C@H](CC(N)=O)NC(=O)[C@H](NC(=O)[C@@H](CC(C)C)NC)[C@H](O)c4ccc(c(Cl)c4)Oc4cc3cc(c4O[C@@H]3O[C@H](CO)[C@@H](O)[C@H](O)[C@H]3O[C@H]3C[C@](C)(N)[C@H](O)[C@H](C)O3)Oc3ccc(cc3Cl)[C@H]1O)c1ccc(O)c-2c1 (stereo partly shown) [Compound 312]?
A: MIC [1]: 0.01 to 0.5 µg/mL (≈ 0.00571 to 0.285 µM); MIC [2]: 0.01 to 0.5 µg/mL (≈ 0.00571 to 0.285 µM); MIC [3]: > 16 µg/mL; MIC (Enterococcus faecium 800): 0.01 to 0.5 µg/mL (≈ 0.00571 to 0.285 µM); MIC [4]: 0.01 to 0.5 µg/mL (≈ 0.00571 to 0.285 µM); MIC [5]: > 16 µg/mL; MIC [6]: 0.01 to 0.5 µg/mL (≈ 0.00571 to 0.285 µM); MIC [7]: 0.5 to 1 µg/mL (≈ 0.285 to 0.571 µM); MIC [8]: 0.01 to 0.5 µg/mL (≈ 0.00571 to 0.285 µM); MIC [9]: 0.01 to 0.5 µg/mL (≈ 0.00571 to 0.285 µM); MIC [10]: 0.5 to 1 µg/mL (≈ 0.285 to 0.571 µM)

Q: With CCCCCOc1ccc(S(=O)(=O)NCCCCCCNC(=O)Oc2cc(O)c3c(c2)[C@@H](C(=O)NC2C4CC5CC(C4)CC2C5)NC(=O)[C@H]2NC(=O)[C@H](NC(=O)[C@@H]4NC(=O)[C@H](CC(N)=O)NC(=O)[C@H](NC(=O)[C@@H](CC(C)C)NC)[C@H](O)c5ccc(c(Cl)c5)Oc5cc4cc(c5O[C@@H]4O[C@H](CO)[C@@H](O)[C@H](O)[C@H]4O[C@H]4C[C@](C)(N)[C@H](O)[C@H](C)O4)Oc4ccc(cc4Cl)[C@H]2O)c2ccc(O)c-3c2)cc1 (stereo partly shown) [Compound 317] as the compound, how does the MIC [1] read?
A: 1 to 2 µg/mL (≈ 0.513 to 1.03 µM)

Q: What about the MIC [2] of the same compound?
A: 0.5 to 1 µg/mL (≈ 0.256 to 0.513 µM)

Q: What about the MIC [3] of the same compound?
A: 8 to 16 µg/mL (≈ 4.1 to 8.2 µM)

Q: What about the MIC (Enterococcus faecium 800) of the same compound?
A: 0.01 to 0.5 µg/mL (≈ 0.00513 to 0.256 µM)

Q: And the MIC [4]?
A: 0.01 to 0.5 µg/mL (≈ 0.00513 to 0.256 µM)

Q: What about the MIC [5] of the same compound?
A: 8 to 16 µg/mL (≈ 4.1 to 8.2 µM)

Q: What about the MIC [6] of the same compound?
A: 1 to 2 µg/mL (≈ 0.513 to 1.03 µM)

Q: What about the MIC [7] of the same compound?
A: 2 to 4 µg/mL (≈ 1.03 to 2.05 µM)

Q: And the MIC [8]?
A: 1 to 2 µg/mL (≈ 0.513 to 1.03 µM)

Q: What about the MIC [9] of the same compound?
A: 0.01 to 0.5 µg/mL (≈ 0.00513 to 0.256 µM)

Q: What about the MIC [10] of the same compound?
A: 1 to 2 µg/mL (≈ 0.513 to 1.03 µM)

Q: How did the MIC [1] turn out when CCOc1ccc(NC(=O)Oc2cc(O)c3c(c2)[C@@H](C(=O)NC2C4CC5CC(C4)CC2C5)NC(=O)[C@H]2NC(=O)[C@H](NC(=O)[C@@H]4NC(=O)[C@H](CC(N)=O)NC(=O)[C@H](NC(=O)[C@@H](CC(C)C)NC)[C@H](O)c5ccc(c(Cl)c5)Oc5cc4cc(c5O[C@@H]4O[C@H](CO)[C@@H](O)[C@H](O)[C@H]4O[C@H]4C[C@](C)(N)[C@H](O)[C@H](C)O4)Oc4ccc(cc4Cl)[C@H]2O)c2ccc(O)c-3c2)cc1 (stereo partly shown) [Compound 330] was run?
A: 0.5 to 1 µg/mL (≈ 0.286 to 0.573 µM)

Q: And the MIC [2]?
A: 0.5 to 1 µg/mL (≈ 0.286 to 0.573 µM)

Q: And the MIC [3]?
A: 4 to 8 µg/mL (≈ 2.29 to 4.58 µM)

Q: And the MIC (Enterococcus faecium 800)?
A: 0.01 to 0.5 µg/mL (≈ 0.00573 to 0.286 µM)

Q: And the MIC [4]?
A: 0.01 to 0.5 µg/mL (≈ 0.00573 to 0.286 µM)

Q: What about the MIC [5] of the same compound?
A: > 16 µg/mL

Q: What about the MIC [6] of the same compound?
A: 1 to 2 µg/mL (≈ 0.573 to 1.15 µM)

Q: What about the MIC [7] of the same compound?
A: 1 to 2 µg/mL (≈ 0.573 to 1.15 µM)

Q: What about the MIC [8] of the same compound?
A: 1 to 2 µg/mL (≈ 0.573 to 1.15 µM)

Q: And the MIC [9]?
A: 0.01 to 0.5 µg/mL (≈ 0.00573 to 0.286 µM)

Q: What about the MIC [10] of the same compound?
A: > 16 µg/mL

Q: With CCCCc1ccc(NC(=O)Oc2cc(O)c3c(c2)[C@@H](C(=O)NC2C4CC5CC(C4)CC2C5)NC(=O)[C@H]2NC(=O)[C@H](NC(=O)[C@@H]4NC(=O)[C@H](CC(N)=O)NC(=O)[C@H](NC(=O)[C@@H](CC(C)C)NC)[C@H](O)c5ccc(c(Cl)c5)Oc5cc4cc(c5O[C@@H]4O[C@H](CO)[C@@H](O)[C@H](O)[C@H]4O[C@H]4C[C@](C)(N)[C@H](O)[C@H](C)O4)Oc4ccc(cc4Cl)[C@H]2O)c2ccc(O)c-3c2)cc1 (stereo partly shown) [Compound 331] as the compound, how does the MIC [1] read?
A: 0.01 to 0.5 µg/mL (≈ 0.00569 to 0.284 µM)

Q: What about the MIC [2] of the same compound?
A: 0.01 to 0.5 µg/mL (≈ 0.00569 to 0.284 µM)

Q: And the MIC [3]?
A: 1 to 2 µg/mL (≈ 0.569 to 1.14 µM)

Q: And the MIC (Enterococcus faecium 800)?
A: 0.01 to 0.5 µg/mL (≈ 0.00569 to 0.284 µM)

Q: And the MIC [4]?
A: 0.01 to 0.5 µg/mL (≈ 0.00569 to 0.284 µM)

Q: And the MIC [5]?
A: > 16 µg/mL

Q: And the MIC [6]?
A: 0.01 to 0.5 µg/mL (≈ 0.00569 to 0.284 µM)

Q: And the MIC [7]?
A: 0.5 to 1 µg/mL (≈ 0.284 to 0.569 µM)

Q: And the MIC [8]?
A: 0.5 to 1 µg/mL (≈ 0.284 to 0.569 µM)

Q: What about the MIC [9] of the same compound?
A: 0.01 to 0.5 µg/mL (≈ 0.00569 to 0.284 µM)

Q: And the MIC [10]?
A: 2 to 4 µg/mL (≈ 1.14 to 2.28 µM)

Q: CCCCCCc1ccc(NC(=O)Oc2cc(O)c3c(c2)[C@@H](C(=O)NC2C4CC5CC(C4)CC2C5)NC(=O)[C@H]2NC(=O)[C@H](NC(=O)[C@@H]4NC(=O)[C@H](CC(N)=O)NC(=O)[C@H](NC(=O)[C@@H](CC(C)C)NC)[C@H](O)c5ccc(c(Cl)c5)Oc5cc4cc(c5O[C@@H]4O[C@H](CO)[C@@H](O)[C@H](O)[C@H]4O[C@H]4C[C@](C)(N)[C@H](O)[C@H](C)O4)Oc4ccc(cc4Cl)[C@H]2O)c2ccc(O)c-3c2)cc1 (stereo partly shown) [Compound 332] was tested. Which MIC [1] did it give?
A: 1 to 2 µg/mL (≈ 0.56 to 1.12 µM)

Q: And the MIC [2]?
A: 1 to 2 µg/mL (≈ 0.56 to 1.12 µM)

Q: And the MIC [3]?
A: 4 to 8 µg/mL (≈ 2.24 to 4.48 µM)

Q: What about the MIC (Enterococcus faecium 800) of the same compound?
A: 0.5 to 1 µg/mL (≈ 0.28 to 0.56 µM)

Q: What about the MIC [4] of the same compound?
A: 0.01 to 0.5 µg/mL (≈ 0.0056 to 0.28 µM)

Q: And the MIC [5]?
A: > 16 µg/mL

Q: What about the MIC [6] of the same compound?
A: 0.5 to 1 µg/mL (≈ 0.28 to 0.56 µM)

Q: And the MIC [7]?
A: 1 to 2 µg/mL (≈ 0.56 to 1.12 µM)

Q: And the MIC [8]?
A: 1 to 2 µg/mL (≈ 0.56 to 1.12 µM)

Q: And the MIC [9]?
A: 0.01 to 0.5 µg/mL (≈ 0.0056 to 0.28 µM)

Q: And the MIC [10]?
A: 8 to 16 µg/mL (≈ 4.48 to 8.96 µM)
